Patent US12240862B2, “Inhibitors of peptidylarginine deiminases” (Gilead Sciences, Inc., priority 2020, dated 2025)

Molecular target: T1, human PAD4 (Homo sapiens, UniProt Q9UM07)
T1 construct: human PAD4 (NM_012387), A2P663, was PCR amplified; His-SUMO (N, cleaved yes); made in house; host or cells: E. coli BL21(DE3)
Assay: In vitro PAD4 BAEE biochemical assay
Conditions: human PAD4, BAEE substrate; 5 nM PAD4, 2 mM calcium chloride, 3 mM BAEE; geometric mean of multiple experiments
Method in brief: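 Ammonia generated from BAEE serves as the readout, measured by o-phthalaldehyde after EDTA termination. Final conditions: 5 nM human PAD4 (SUMO tag cleaved), 2 mM CaCl2, 3 mM BAEE, pH 7.6 MOPS buffer, 25 °C for 2 h following a 30-min compound preincubation.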

T1 sequence (Q9UM07 2-663): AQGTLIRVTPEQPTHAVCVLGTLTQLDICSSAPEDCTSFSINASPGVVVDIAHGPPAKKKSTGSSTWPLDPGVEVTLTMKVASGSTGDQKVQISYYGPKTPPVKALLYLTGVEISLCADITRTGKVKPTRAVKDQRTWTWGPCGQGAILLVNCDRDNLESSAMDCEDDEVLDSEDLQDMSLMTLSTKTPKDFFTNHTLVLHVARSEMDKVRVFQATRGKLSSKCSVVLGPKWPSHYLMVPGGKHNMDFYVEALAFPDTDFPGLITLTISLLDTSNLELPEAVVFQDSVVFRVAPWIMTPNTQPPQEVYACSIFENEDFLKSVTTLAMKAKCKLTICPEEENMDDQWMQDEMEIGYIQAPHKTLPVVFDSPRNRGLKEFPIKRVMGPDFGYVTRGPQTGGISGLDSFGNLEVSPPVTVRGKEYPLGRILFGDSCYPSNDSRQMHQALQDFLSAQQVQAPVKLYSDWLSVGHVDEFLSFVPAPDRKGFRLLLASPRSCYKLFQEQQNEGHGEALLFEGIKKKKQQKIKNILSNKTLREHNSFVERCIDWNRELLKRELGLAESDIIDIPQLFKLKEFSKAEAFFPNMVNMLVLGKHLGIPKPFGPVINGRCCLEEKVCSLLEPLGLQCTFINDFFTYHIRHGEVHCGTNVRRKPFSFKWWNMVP

Compound	IC50 [nM]
COc1cc(C(=O)N2[C@H]3CC[C@@H]2[C@H](N)C3)cc2nc(-c3cc4ccc([C@@H](C)NC(=O)c5cnn(C)c5)nc4n3CC3CC3)c(C)n12 [Example 116, ~{N}-[(1~{R})-1-[2-[7-[(1~{R},2~{R},4~{S})-2-amino-7-azabicyclo[2.2.1]heptane-7-carbonyl]-5-methoxy-3-methylimidazo [1,2-a]pyridin-2-yl]-1-(cyclopropylmethyl)pyrrolo [2,3-b]pyridin-6-yl]ethyl]-1-methylpyrazole-4-carboxamide]	34.8
CS(=O)(=O)N(c1ccc2cc(-c3nc4cc(C(=O)N5CC[C@@H](O)[C@@H](N)C5)ccn4c3C3CC3)n(CC3CC3)c2n1)C(F)F [Example 395, ~{N}-[2-[7-[(3~{S},4~{R})-3-amino-4-hydroxypiperidine-1-carbonyl]-3-cyclopropylimidazo[1,2-a]pyridin-2-yl]-1-(cyclopropylmethyl)pyrrolo [2,3-b]pyridin-6-yl]-~{N}-(difluoromethyl) methanesulfonamide]	259
COc1cc(C(=O)N2CCC3(CNC3)C2)cc2nc(-c3cc4ccc(N(C(F)F)S(C)(=O)=O)nc4n3CC3CC3)c(C)n12 [Example 380, ~{N}-[1-(cyclopropylmethyl)-2-[7-(2,6-diazaspiro[3.4]octane-6-carbonyl)-5-methoxy-3-methylimidazo[1,2-a]pyridin-2-yl]pyrrolo[2,3-b]pyridin-6-yl]-~{N}-(difluoromethyl) methanesulfonamide]	24700

Continued, values first:

IC50 [nM]	Compound
65.6	COc1cc(C(=O)N2[C@H]3CC[C@@H]2[C@H](N)C3)cc2nc(-c3cc4ccc(C(C)Cc5nnc(C)o5)nc4n3CC3CC3)c(C)n12 (some centres unmarked) [Example 516, [(1~{R},2~{R},4~{S})-2-amino-7-azabicyclo [2.2.1]heptan-7-yl]-[2-[1-(cyclopropylmethyl)-6-[1-(5-methyl-1,3,4-oxadiazol-2-yl)propan-2-yl]pyrrolo[2,3-b]pyridin-2-yl]-5-methoxy-3-methylimidazo[1,2-a]pyridin-7-yl]methanone]
233	COc1cc(C(=O)N2C[C@H]3CCC[C@@H]2[C@@H]3N)cc2nc(-c3cc4ccc(N(C(F)F)S(C)(=O)=O)nc4n3CC3CC3)c(C)n12 [Example 330, N-[2-[7-[(1R,5R,8R)-8-amino-6-azabicyclo[3.2.1]octane-6-carbonyl]-5-methoxy-3-methyl-imidazo [1,2-a]pyridin-2-yl]-1-(cyclopropylmethyl)pyrrolo [2,3-b]pyridin-6-yl]-N-(difluoromethyl) methanesulfonamide]
332	COc1cc(C(=O)N2[C@H]3CC[C@@H]2[C@H](N)C3)cc2nc(-c3cc4ccc(-c5cncc(F)c5C)nc4n3CC3CC3)c(C)n12 [Example 564, [(1~{R},2~{R},4~{S})-2-amino-7-azabicyclo [2.2.1]heptan-7-yl]-[2-[1-(cyclopropylmethyl)-6-(5-fluoro-4-methylpyridin-3-yl)pyrrolo [2,3-b]pyridin-2-yl]-5-methoxy-3-methylimidazo[1,2-a]pyridin-7-yl]methanone]
46.8	COc1cc(C(=O)N2[C@H]3CC[C@@H]2[C@H](N)C3)cc2nc(-c3cc4ccc(N(C)S(C)(=O)=O)nc4n3CC3CC3)c(C)n12 [Example 476, ~{N}-[2-[7-[(1~{R}, 2~{R},4~{S})-2-amino-7-azabicyclo[2.2.1]heptane-7-carbonyl]-5-methoxy-3-methylimidazo[1,2-a]pyridin-2-yl]-1-(cyclopropylmethyl)pyrrolo[2,3-b]pyridin-6-yl]-~{N}-methylmethanesulfonamide]

System: murine CIA model
Assay: not given
Conditions: prophylactic treatment; cited from earlier work

Compound	clinical and histological scores
NC(=O)[C@H](CCCN=C(N)CCl)NC(=O)c1ccccc1 [chloroamidine]	improvement of clinical and histological scores
GSK199	improvement of clinical and histological scores

System: models of chronic and acute inflammatory diseases
Assay: not given
Conditions: MRL/lpr lupus, hemorrhagic shock in rats, CLP sepsis, DSS-colitis, ApoE-/- arteriosclerosis, diabetic wound healing models; cited from earlier work

Compound	clinical, inflammatory, histopathological and mechanical end points, NETosis, outcome
NC(=O)[C@H](CCCN=C(N)CCl)NC(=O)c1ccccc1 [chloroamidine]	reduction of clinical, inflammatory, histopathological and mechanical end points
YW3-56	reduction of clinical, inflammatory, histopathological and mechanical end points
